Measured values from patent publication US6585961B1, “Antimicrobial compositions” (priority 2001, dated 2003).

Legend:
[1] = Appearance and particle size of essential oil emulsion with surfactant; format: physicochemical; conditions: Table I; for Appearance: emulsion of essential oils with surfactant; for Estimated Particle Size: micelle of essential oils with surfactant
Excerpt: Since there are literally thousands of surfactants, many of which fulfill these criteria, it would be a very difficult task to examine every one of them on an individual basis. […]

[2] = Hydrophile-lipophile balance (HLB) of surfactant; format: physicochemical; conditions: for HLB: Table I; for HLB Value: surfactants (2 wt. %) found to give the desired results
Excerpt: An old and well-accepted method to determine functionality of surfactants is known as the hydrophile -lipophile balance (HLB). The HLB is an expression of the relative simultaneous attraction of a surfactant for water and for oil. The HLB of a surfactant determines the type of an emulsion that tends to be formed. It is an indicative of the behavior characteristics and not an indication of surfactant efficiency.
When two or more surfactants are to be blended the HLB of the combinations is easily calculated. If x is the proportion of one surfactant having an HLB of A, and the other surfactant has an HLB of B, the HLB of the combination can be expressed for all practical purposes as xA+(1−x)B. This is a straight-line relationship. If the value of this 16 or greater, then most likely the combination will be workable.

Compound	Appearance [1]	Estimated Particle Size [1]	HLB [2]	HLB Value [2]
Glyceryl dilaurate [Glyceryl dilaurate Lexemul GDL]	not dispersible	very large^1	2.4	–
Cocamidopropyl betaine [Tego Betaine ZF]	transparent	≧0.05u	–	–
CCCCCCCCCCCCOS(=O)(=O)[O-].[Na+] [Dodecyl sulfate, sodium salt]	–	–	–	˜40
CCCCCCCCCCCCCCCCCC(=O)OCCO [Glycol stearate LIPO EGDS, Glycol stearate]	2 phase	very large^1	2.0	–
DL-2-pyrrolidone-5-carboxylic acid salt of ethyl N-cocoyl-L-arginate	–	–	–	>20
